# Source: patent US20230398234A1, “NOVEL FUNGAL COMPOIND FORMULATIONS AND THEIR THERAPEUTIC METHODS OF USE” (priority 2020, published 2023)
# Conditions: UPLC quantification of cordycepin; variable mass ratios; FIG. 2
smiles,measurement,value
"Nc1ncnc2c1ncn2[C@@H]1O[C@H](CO)C[C@H]1O [Cordycepin, 3′-deoxyadenosine]","solubility of Cordycepin in Cordyceps extract, TPGS solution vs pure water",did not increase the solubility
